{"source": "paper PMC10967572", "about": "“Induction of Oxidative Stress and Ferroptosis in Triple-Negative Breast Cancer Cells by Niclosamide via Blockade of the Function and Expression of SLC38A5 and SLC7A11” (Antioxidants, 2024)", "key": {"[1]": {"test_system": "Nrf2", "assay": "Nrf2 expression and subcellular localization (immunostaining, Western blot, qRT-PCR) in TNBC cells", "format": "cell-based, human", "details": "niclosamide 2 μM, 24 h; for Nrf2 protein level: Western blot; for Nrf2 mRNA level: qRT-PCR", "description": "(§1) Total RNA was extracted from cells using TRIzol Reagent (ThermoFisher Scientific, Waltham, MA, USA) and the RNA was reverse-transcribed using a high-capacity cDNA reverse transcription kit (ThermoFisher Scientific, Waltham, MA, USA) according to the manufacturer’s protocol. Quantitative RT-PCR was performed with Takara Taq Hot Start Version (TaKaRa Biotechnology, Shiga, Japan) or Power SYBR Green PCR master mix (Bio-Rad, Hercules, CA, USA). Primer sequences are shown in Supplemental Table S1. The relative mRNA expression was determined by the 2^−∆∆Ct method. Additionally, 18S was used as a housekeeping gene for normalization.\n(§2) Cells and tumor tissues were lysed in Pierce™ RIPA buffer (ThermoFisher Scientific, Waltham, MA, USA) supplemented with Halt™ Protease and Phosphatase Inhibitor Cocktail (ThermoFisher Scientific, Waltham, MA, USA). Homogenates were centrifuged, and supernatants were used for protein measurement via Pierce™ BCA Protein Assay Kit (ThermoFisher Scientific, Waltham, MA, USA). […] Western blot samples were prepared in Laemmli sample buffer (Bio-Rad Laboratories, Hercules, CA, USA). They were loaded onto a SDS–PAGE gel and transferred onto a PVDF membrane (Bio-Rad Laboratories, Hercules, CA, USA). The membrane was blocked and antibodies diluted in 5% nonfat dry milk (Bio-Rad Laboratories, Hercules, CA, USA) or in 5% bovine serum albumin (Irvine Scientific, Santa Ana, CA, USA) were used. Protein bands were visualized using Pierce™ ECL Western Blotting Substrate (ThermoFisher Scientific, Waltham, MA, USA) and developed on the autoradiography film (Santa Cruz, Dallas, TX, USA). Primary antibodies were purchased either from Cell Signaling (Danvers, MA, USA) [anti-GPX4 (#52455), anti-FTH (#4393), anti-HSP60 (#12165), anti-phospho-p70S6K (#9205), anti-p70S6K (#2708)] or from Abcam (Waltham, MA, USA) [Nrf2 (#ab62352)]. Secondary antibody Horseradish peroxidase-conjugated goat anti-rabbit IgG (#1706515) was purchased from Bio-Rad Laboratories (Hercules, CA, USA). For quantification of protein levels by the densitometric analysis, the experiment was carried out in triplicate and the data were collected from the resultant three Western blots."}, "[2]": {"test_system": "MB231 cells and TXBR100 cells", "assay": "Cellular glutathione levels (GSH-Glo assay)", "format": "cell-based, human", "details": "niclosamide 2 μM, 24 h; MB231 and TXBR100", "description": "(§3) Control and niclosamide-treated cells were used for measurement of cellular glutathione levels as instructed in the manufacturer’s protocol (GSH-Glo assay, Promega, Madison, WI, USA). The levels of malondialdehyde were measured using lipid peroxidation kit [Lipid Peroxidation (MDA) Assay Kit (MAK085), Millipore-sigma, St. Louis, MO, USA]."}, "[3]": {"test_system": "SLC38A5 and SLC7A11 mRNA", "assay": "qRT-PCR of SLC38A5 and SLC7A11 mRNA in TNBC cells", "format": "cell-based, human", "details": "niclosamide 2 μM, 24 h; MB231 and TXBR100", "description": "as §1"}, "[4]": {"test_system": "GPX4, FTH1, p-S6K", "assay": "Western blot of GPX4, ferritin heavy chain and p-S6K in TNBC cells", "format": "cell-based, human", "details": "niclosamide 2 μM, 24 h", "description": "as §2"}, "[5]": {"test_system": "MB231 and TXBR100 cells", "assay": "Lipid peroxidation (malondialdehyde) assay", "format": "cell-based, human", "details": "niclosamide 2.5 and/or 5 μM, 24 h", "description": "as §3"}, "[6]": {"test_system": "TNBC cells (MB231 and TXBR100)", "assay": "Colony formation (clonogenic) assay", "format": "cell-based, human", "details": "niclosamide 0.5 μM, 10 days", "from_the_text": "We performed the colony formation (clonogenic) assay with different doses of niclosamide on two different TNBC cell lines. Initial seeding was done with 500 cells/well and culture was continued for 10 days with culture medium replaced with fresh medium with freshly prepared niclosamide every other day. At the end of the 10-day time period, the medium was removed and the colonies were fixed with ice-cold methanol/acetone and then stained with Giemsa stain."}, "[7]": {"test_system": "TNBC cells (MB231 and TXBR100)", "assay": "MTT cell proliferation / viability assay", "format": "cell-based, human", "details": "niclosamide 2 μM, 72 h, MB231 and TXBR100", "description": "Cells were seeded in 96-well plates; after 24 h, niclosamide treatment was initiated. Cells were then cultured for 72 h with fresh medium containing freshly prepared niclosamide supplied every 24 h. Cells were washed with phosphate-buffered saline twice followed by MTT reagent (ATCC). Treatment and lysis of the cells were done as per the manufacturer’s instructions. Absorbance of the lysate was measured at 550 nm. Cell viability assay with various cell-death inhibitors was also performed as described above. Cells were treated with niclosamide (1 µM) along with cell death inhibitors (10 µM), except hydroxychloroquine (25 µM) for 48 h."}, "[8]": {"test_system": "MB231 and TXBR100 cells", "assay": "Matrigel cell invasion assay", "format": "cell-based", "details": "Homo sapiens, niclosamide 2.5 μM, 24 h, read-out: inhibition of cell invasion and migration", "description": "The effect of niclosamide on cell invasion was monitored using Corning® BioCoat™ Matrigel® Invasion assay kit according to the manufacturer’s instructions. Briefly, cells were serum-starved and their invasion to the other side of the membrane was analyzed in the presence or absence of niclosamide for 24 h. At the end of this treatment, non-invaded cells on the top side of the membrane were removed by scrubbing. Cells which invaded the other side of the membrane were fixed with 100% methanol, stained with crystal violet and counted under an inverted microscope; images were also captured."}, "[9]": {"test_system": "MB231 xenograft", "assay": "Mouse xenograft tumor growth", "format": "in vivo", "details": "MB231 xenograft in nude mice; niclosamide 4 mg/kg daily intraperitoneal", "description": "(§4) Female athymic nude mice (4-week-old) were purchased from Jackson Laboratories and housed under standard conditions. MDA-MB231 cells were injected into lower mammary fat pad (5 × 10^6 cells). All cells were suspended in serum-free media and Matrigel (1:1 ratio), with 100 µL of suspension being injected into each mouse. Mice were treated by daily intraperitoneal injection of niclosamide (4 mg/kg/day) and vehicle (dimethylsulfoxide) control. The treatment began when the tumor size was 100–150 mm^3. Tumor size was measured biweekly with a caliper, with tumor volume calculated using the formula (width^2 × length)/2. Tumors were allowed to grow for 7 weeks; mice were then euthanized via isoflurane […] and tumors harvested. The animal study protocol was approved by the Texas Tech University Health Sciences Center Institutional Animal Care and Use Committee (IACUC protocol number 18005) and the experiments were conducted in the same institution. RNA and protein were prepared from the tumor tissue for qRT-PCR and Western blotting."}, "[10]": {"test_system": "MB231 xenograft tumors", "assay": "qRT-PCR and Western blot of xenograft tumor tissue", "format": "in vivo, mouse", "details": "niclosamide 4 mg/kg daily i.p.", "description": "as §1, §2, §4"}, "[11]": {"parameters": "method as in PMID 31078739, PMID 33737681", "details": "oral; cited from earlier work"}}}
{"smiles": "O=C(Nc1ccc([N+](=O)[O-])cc1Cl)c1cc(Cl)ccc1O", "note": "[niclosamide]", "values": [{"measurement": "Nrf2 protein level", "setting": "[1]; MB231", "result": "decreased"}, {"measurement": "Nrf2 mRNA level", "setting": "[1]; MB231", "result": "decreased"}, {"measurement": "Nrf2 protein level", "setting": "[1]; TXBR100", "result": "significantly decreased"}, {"measurement": "Nrf2 mRNA level", "setting": "[1]; TXBR100", "result": "did not alter"}, {"measurement": "decrease in glutathione levels", "setting": "[2]", "result": "60–70%"}, {"measurement": "SLC7A11 mRNA level", "setting": "[3]", "result": "decreased"}, {"measurement": "SLC38A5 mRNA level", "setting": "[3]", "result": "decreased"}, {"measurement": "glutathione peroxidase 4 protein levels", "setting": "[4]; MB231 and TXBR100", "result": "decreased"}, {"measurement": "ferritin levels", "setting": "[4]; MB231 and TXBR100 (more pronounced in TXBR100)", "result": "lower"}, {"measurement": "p70S6K and phospho-p70S6K levels (mTOR signaling)", "setting": "[4]; both TNBC cell lines", "result": "profound decrease"}, {"measurement": "malondialdehyde levels (lipid peroxidation)", "setting": "[5]", "result": "increase"}, {"measurement": "decrease in colony formation", "setting": "[6]", "result": "> 50", "unit": "%"}, {"measurement": "decrease in cell proliferation", "setting": "[7]", "result": "> 50", "unit": "%"}, {"measurement": "inhibition at […]", "setting": "[8]", "result": "> 75", "unit": "%"}, {"measurement": "growth of the tumors", "setting": "[9]", "result": "drastic reduction"}, {"measurement": "Nrf2 protein levels in tumors", "setting": "[10]; Western blot", "result": "markedly decreased"}, {"measurement": "ferritin heavy chain protein levels in tumors", "setting": "[10]; Western blot", "result": "decreased"}, {"measurement": "Nrf2 mRNA level in tumors", "setting": "[10]; qRT-PCR", "result": "markedly decreased"}, {"measurement": "SLC7A11 mRNA level in tumors", "setting": "[10]; qRT-PCR", "result": "markedly decreased"}, {"measurement": "SLC38A5 mRNA level in tumors", "setting": "[10]; qRT-PCR", "result": "markedly decreased"}, {"measurement": "bioavailability when given orally", "setting": "[11]", "result": "low"}]}
